IC50 data for twelve compounds are collected here from ChEMBL document CHEMBL5375948, “Development and Pharmacochemical Characterization Discover a Novel Brain-Permeable HDAC11-Selective Inhibitor with Therapeutic Potential by Regulating Neuroinflammation in Mice” (J Med Chem, 2023).

The structures appear in SMILES notation.

For assay [1], the target named is Histone deacetylase 3 (Homo sapiens, UniProt O15379).
Description: Inhibition of recombinant full-length human HDAC3 using FAM-RHKK(Ac)-NH2 as substrate by electrophoretic mobility shift assay
In assay [2] the target is T1, Polyamine deacetylase HDAC10 (Homo sapiens, UniProt Q969S8).
T1 sequence (Q969S8 whole entry): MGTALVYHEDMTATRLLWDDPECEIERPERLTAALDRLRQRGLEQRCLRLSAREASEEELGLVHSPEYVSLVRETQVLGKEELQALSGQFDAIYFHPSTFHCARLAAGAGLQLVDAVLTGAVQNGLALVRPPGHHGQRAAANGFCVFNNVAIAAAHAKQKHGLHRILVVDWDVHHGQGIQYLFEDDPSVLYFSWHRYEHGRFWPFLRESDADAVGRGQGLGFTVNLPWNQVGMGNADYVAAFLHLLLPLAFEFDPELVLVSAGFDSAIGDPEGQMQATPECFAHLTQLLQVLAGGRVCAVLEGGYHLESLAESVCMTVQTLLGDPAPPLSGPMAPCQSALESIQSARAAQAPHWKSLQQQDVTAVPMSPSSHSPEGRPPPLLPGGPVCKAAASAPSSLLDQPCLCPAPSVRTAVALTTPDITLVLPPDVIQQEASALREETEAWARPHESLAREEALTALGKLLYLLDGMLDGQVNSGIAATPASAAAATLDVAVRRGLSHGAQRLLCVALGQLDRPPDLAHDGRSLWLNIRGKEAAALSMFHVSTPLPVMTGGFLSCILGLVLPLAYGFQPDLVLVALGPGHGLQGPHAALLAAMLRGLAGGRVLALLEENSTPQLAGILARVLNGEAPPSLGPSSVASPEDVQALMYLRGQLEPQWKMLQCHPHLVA
Briefly: Inhibition of recombinant full-length human HDAC10 using FITC-H3K27(Ac)-NH2 as substrate by electrophoretic mobility shift assay. On the technique in general: In EMSA bound probe runs differently from free probe, usually more slowly.

Assay [3] addresses Histone deacetylase 2 (Homo sapiens, UniProt Q92769). Briefly: Inhibition of recombinant full-length human HDAC2 using FITC-H3K27(Ac)-NH2 as substrate by electrophoretic mobility shift assay.
The target of assay [4] is Histone deacetylase 1 (Homo sapiens, UniProt Q13547). The assay can be described thus: Inhibition of recombinant full-length human HDAC1 using FITC-H3K27(Ac)-NH2 as substrate by electrophoretic mobility shift assay.
For assay [5], the target named is T2, Histone deacetylase 11 (Homo sapiens, UniProt Q96DB2).
T2 sequence (Q96DB2 whole entry): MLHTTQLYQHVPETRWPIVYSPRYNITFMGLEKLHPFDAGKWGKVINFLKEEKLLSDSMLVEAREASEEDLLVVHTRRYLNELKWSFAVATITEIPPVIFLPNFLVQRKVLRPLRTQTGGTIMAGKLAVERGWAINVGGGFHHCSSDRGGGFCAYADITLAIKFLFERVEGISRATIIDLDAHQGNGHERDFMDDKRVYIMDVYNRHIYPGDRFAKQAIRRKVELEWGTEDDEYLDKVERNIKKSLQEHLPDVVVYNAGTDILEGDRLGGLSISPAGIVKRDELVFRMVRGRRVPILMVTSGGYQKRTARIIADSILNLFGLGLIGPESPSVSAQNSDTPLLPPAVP
Briefly: Inhibition of recombinant full-length human HDAC11 using FAM-RHKK (trifluor-Ac)-NH2 as substrate by electrophoretic mobility shift assay.

Assay [6] concerns the target Histone deacetylase 5 (Homo sapiens, UniProt Q9UQL6). The assay can be described thus: Inhibition of recombinant full-length human HDAC5 using FAM-RHKK (trifluor-Ac)-NH2 as substrate by electrophoretic mobility shift assay.
Assay [7] addresses T3, Histone deacetylase 8 (Homo sapiens, UniProt Q9BY41).
T3 sequence (Q9BY41 whole entry): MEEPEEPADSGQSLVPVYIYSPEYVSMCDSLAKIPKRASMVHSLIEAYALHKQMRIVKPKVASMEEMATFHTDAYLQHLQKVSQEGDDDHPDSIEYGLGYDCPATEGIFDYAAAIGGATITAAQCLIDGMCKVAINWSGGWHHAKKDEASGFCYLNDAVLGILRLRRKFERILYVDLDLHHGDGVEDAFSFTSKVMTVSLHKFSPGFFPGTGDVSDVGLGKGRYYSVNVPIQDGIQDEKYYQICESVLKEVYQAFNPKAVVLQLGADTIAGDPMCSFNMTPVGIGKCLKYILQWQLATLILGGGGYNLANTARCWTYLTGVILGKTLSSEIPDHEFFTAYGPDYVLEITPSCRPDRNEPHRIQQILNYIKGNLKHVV
Briefly: Inhibition of recombinant full-length human HDAC8 using FAM-RHKK(Ac)-NH2 as substrate by electrophoretic mobility shift assay.

Assay [8] deals with Histone deacetylase 4 (Homo sapiens, UniProt P56524). The assay can be described thus: Inhibition of recombinant full-length human HDAC4 using FAM-RHKK (trifluor-Ac)-NH2 as substrate by electrophoretic mobility shift assay.
For assay [9], the target named is Histone deacetylase 9 (Homo sapiens, UniProt Q9UKV0). The assay can be described thus: Inhibition of recombinant full-length human HDAC9 using FAM-RHKK (trifluor-Ac)-NH2 as substrate by electrophoretic mobility shift assay.
For assay [10], the target named is T4, Protein deacetylase HDAC6 (Homo sapiens, UniProt Q9UBN7).
T4 sequence (Q9UBN7 whole entry): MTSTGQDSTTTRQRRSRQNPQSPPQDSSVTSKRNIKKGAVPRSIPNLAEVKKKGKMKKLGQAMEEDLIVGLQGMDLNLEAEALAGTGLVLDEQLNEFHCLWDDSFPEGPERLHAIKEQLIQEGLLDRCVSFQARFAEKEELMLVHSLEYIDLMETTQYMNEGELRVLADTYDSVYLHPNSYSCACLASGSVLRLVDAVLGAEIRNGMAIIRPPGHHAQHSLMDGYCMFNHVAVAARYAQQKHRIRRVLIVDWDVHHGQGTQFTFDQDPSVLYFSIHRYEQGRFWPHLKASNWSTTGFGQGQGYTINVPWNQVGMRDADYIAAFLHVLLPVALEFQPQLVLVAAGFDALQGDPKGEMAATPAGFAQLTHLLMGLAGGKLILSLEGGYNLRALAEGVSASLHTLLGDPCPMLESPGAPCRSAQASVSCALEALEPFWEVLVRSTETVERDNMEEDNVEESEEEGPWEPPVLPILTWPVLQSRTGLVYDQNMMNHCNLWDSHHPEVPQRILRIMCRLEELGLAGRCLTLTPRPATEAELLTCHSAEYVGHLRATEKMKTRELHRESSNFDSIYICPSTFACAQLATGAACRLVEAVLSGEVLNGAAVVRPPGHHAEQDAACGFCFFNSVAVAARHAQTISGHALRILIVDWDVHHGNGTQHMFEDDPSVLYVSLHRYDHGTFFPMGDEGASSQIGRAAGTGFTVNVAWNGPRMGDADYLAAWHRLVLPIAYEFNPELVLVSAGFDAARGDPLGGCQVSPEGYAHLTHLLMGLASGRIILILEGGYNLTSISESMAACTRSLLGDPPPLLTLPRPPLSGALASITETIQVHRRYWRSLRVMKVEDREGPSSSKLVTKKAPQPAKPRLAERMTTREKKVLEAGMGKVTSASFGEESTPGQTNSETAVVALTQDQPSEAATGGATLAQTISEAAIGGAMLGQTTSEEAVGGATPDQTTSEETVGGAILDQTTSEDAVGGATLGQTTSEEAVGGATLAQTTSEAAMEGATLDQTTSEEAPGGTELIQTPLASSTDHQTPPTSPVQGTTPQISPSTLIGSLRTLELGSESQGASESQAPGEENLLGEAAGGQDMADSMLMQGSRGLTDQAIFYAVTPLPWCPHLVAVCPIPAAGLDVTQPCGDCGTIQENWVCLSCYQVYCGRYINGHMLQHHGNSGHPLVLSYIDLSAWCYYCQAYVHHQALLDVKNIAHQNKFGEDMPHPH
The assay can be described thus: Inhibition of recombinant full-length human HDAC6 using FAM-RHKK(Ac)-NH2 as substrate by electrophoretic mobility shift assay.

Assay [11] concerns the target T5, Histone deacetylase 7 (Homo sapiens, UniProt Q8WUI4).
T5 sequence (Q8WUI4 whole entry): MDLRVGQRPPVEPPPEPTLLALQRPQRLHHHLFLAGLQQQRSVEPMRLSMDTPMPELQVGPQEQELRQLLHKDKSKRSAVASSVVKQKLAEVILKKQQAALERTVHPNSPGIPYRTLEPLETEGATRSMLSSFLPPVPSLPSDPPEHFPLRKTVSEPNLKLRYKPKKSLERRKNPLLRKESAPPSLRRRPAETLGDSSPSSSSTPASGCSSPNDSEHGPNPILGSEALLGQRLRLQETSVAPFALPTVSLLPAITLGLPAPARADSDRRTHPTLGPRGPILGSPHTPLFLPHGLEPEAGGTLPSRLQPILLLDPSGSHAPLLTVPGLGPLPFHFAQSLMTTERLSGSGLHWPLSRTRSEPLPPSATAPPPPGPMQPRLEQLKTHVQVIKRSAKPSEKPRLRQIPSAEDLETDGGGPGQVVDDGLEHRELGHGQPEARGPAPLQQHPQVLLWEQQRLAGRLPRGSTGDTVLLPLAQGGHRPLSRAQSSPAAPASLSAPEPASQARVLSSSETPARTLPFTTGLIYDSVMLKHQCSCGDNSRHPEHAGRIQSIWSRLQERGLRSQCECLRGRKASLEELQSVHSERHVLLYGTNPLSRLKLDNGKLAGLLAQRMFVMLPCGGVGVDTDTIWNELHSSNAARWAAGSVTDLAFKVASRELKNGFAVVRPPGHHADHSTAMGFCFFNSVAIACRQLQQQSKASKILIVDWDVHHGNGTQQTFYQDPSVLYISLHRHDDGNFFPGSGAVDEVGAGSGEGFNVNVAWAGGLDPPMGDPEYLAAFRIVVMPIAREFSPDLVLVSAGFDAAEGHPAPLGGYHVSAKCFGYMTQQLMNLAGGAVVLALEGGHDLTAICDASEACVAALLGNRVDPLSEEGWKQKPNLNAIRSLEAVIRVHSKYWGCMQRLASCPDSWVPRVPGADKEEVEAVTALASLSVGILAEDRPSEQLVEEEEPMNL
Briefly: Inhibition of recombinant full-length human HDAC7 using FAM-RHKK (trifluor-Ac)-NH2 as substrate by electrophoretic mobility shift assay.

Histone deacetylase 5, sequence (Q9UQL6 whole entry): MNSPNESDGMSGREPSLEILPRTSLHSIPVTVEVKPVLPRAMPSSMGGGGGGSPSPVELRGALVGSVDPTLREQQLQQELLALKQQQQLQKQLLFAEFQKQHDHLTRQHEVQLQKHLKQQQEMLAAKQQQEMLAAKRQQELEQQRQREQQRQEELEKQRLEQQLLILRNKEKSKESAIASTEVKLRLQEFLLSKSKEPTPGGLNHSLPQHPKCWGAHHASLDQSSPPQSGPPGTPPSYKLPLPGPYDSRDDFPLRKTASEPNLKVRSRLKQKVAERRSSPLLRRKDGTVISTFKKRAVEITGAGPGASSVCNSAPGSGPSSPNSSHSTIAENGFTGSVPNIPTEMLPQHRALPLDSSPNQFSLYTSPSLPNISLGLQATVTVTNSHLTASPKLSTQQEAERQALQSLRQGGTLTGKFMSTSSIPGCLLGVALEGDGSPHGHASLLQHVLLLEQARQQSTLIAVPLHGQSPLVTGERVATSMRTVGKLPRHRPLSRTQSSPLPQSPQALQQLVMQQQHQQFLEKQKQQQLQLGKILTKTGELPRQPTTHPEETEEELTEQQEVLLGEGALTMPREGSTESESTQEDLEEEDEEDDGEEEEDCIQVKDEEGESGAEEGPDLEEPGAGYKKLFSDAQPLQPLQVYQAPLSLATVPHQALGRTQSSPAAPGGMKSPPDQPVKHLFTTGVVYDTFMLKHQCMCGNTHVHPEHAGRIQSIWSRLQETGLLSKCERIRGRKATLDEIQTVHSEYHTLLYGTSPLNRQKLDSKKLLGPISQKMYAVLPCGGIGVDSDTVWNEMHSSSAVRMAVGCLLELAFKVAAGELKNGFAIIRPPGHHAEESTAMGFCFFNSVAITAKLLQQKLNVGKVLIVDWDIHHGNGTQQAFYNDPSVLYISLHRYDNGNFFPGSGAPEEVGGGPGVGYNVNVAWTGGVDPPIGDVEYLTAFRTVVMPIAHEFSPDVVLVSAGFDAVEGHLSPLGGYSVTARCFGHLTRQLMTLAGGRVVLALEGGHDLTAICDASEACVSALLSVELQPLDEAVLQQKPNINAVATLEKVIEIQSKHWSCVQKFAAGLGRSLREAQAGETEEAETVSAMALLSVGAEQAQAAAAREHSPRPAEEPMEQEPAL
Histone deacetylase 1, sequence (Q13547 whole entry): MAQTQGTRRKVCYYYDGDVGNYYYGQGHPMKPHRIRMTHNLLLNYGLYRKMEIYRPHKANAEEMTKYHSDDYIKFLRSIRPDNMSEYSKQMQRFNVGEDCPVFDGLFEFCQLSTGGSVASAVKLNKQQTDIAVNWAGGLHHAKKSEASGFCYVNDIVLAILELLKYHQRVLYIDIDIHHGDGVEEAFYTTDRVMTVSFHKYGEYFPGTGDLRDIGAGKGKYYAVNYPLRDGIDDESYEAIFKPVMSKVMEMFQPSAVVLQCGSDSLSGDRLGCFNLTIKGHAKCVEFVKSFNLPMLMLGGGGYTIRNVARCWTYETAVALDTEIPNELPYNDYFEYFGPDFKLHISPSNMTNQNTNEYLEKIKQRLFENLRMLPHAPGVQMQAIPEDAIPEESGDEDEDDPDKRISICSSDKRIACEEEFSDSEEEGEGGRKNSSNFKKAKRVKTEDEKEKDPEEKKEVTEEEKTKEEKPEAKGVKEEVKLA
Histone deacetylase 3, sequence (O15379 whole entry): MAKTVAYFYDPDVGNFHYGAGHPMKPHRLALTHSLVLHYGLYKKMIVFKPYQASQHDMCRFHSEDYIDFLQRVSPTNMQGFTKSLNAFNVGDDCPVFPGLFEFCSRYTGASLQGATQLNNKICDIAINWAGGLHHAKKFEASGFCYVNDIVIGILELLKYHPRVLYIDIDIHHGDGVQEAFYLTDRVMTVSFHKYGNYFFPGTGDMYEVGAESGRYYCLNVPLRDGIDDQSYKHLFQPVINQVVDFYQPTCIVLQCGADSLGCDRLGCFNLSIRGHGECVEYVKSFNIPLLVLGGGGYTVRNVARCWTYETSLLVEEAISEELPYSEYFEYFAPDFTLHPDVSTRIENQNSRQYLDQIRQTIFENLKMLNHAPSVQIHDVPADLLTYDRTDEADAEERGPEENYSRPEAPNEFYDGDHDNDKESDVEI
Histone deacetylase 9, sequence (Q9UKV0 whole entry): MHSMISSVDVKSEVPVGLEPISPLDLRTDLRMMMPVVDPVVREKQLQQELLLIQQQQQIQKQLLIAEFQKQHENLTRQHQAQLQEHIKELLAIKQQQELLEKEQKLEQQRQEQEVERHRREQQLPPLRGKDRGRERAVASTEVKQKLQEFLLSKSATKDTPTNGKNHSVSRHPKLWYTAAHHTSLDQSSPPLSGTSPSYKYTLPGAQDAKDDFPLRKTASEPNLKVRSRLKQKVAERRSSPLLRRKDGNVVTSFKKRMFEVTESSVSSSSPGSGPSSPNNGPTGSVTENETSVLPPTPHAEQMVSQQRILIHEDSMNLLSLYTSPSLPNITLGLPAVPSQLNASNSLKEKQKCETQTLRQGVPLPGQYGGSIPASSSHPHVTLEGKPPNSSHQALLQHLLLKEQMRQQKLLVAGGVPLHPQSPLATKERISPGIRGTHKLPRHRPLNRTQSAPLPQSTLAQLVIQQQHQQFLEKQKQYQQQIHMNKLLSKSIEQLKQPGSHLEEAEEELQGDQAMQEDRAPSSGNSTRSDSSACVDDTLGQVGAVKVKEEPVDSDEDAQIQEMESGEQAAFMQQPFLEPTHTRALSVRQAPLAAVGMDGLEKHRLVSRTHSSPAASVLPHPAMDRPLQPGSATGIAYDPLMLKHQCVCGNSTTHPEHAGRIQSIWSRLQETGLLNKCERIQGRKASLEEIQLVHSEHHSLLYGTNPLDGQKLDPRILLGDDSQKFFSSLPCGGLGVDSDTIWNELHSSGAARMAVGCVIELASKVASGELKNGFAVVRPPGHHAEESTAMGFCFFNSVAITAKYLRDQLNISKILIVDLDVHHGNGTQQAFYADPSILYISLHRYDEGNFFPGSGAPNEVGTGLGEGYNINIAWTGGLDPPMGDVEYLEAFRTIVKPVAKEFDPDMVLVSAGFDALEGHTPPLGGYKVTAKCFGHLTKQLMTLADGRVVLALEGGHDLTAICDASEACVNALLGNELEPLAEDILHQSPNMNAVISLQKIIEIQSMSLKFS
Histone deacetylase 2, sequence (Q92769 whole entry): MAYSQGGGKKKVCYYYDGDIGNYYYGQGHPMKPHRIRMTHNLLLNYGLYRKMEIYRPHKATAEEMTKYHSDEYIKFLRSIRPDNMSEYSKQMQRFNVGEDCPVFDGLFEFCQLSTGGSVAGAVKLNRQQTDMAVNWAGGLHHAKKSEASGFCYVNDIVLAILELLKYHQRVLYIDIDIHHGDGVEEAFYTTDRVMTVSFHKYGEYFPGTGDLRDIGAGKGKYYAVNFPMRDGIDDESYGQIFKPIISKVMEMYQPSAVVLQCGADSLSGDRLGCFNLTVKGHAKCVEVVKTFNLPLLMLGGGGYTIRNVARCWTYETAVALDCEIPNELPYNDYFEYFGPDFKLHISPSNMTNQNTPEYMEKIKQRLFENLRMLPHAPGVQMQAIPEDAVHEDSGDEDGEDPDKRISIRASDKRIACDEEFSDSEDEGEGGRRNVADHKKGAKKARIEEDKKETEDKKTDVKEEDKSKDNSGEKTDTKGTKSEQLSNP
Histone deacetylase 4, sequence (P56524 whole entry): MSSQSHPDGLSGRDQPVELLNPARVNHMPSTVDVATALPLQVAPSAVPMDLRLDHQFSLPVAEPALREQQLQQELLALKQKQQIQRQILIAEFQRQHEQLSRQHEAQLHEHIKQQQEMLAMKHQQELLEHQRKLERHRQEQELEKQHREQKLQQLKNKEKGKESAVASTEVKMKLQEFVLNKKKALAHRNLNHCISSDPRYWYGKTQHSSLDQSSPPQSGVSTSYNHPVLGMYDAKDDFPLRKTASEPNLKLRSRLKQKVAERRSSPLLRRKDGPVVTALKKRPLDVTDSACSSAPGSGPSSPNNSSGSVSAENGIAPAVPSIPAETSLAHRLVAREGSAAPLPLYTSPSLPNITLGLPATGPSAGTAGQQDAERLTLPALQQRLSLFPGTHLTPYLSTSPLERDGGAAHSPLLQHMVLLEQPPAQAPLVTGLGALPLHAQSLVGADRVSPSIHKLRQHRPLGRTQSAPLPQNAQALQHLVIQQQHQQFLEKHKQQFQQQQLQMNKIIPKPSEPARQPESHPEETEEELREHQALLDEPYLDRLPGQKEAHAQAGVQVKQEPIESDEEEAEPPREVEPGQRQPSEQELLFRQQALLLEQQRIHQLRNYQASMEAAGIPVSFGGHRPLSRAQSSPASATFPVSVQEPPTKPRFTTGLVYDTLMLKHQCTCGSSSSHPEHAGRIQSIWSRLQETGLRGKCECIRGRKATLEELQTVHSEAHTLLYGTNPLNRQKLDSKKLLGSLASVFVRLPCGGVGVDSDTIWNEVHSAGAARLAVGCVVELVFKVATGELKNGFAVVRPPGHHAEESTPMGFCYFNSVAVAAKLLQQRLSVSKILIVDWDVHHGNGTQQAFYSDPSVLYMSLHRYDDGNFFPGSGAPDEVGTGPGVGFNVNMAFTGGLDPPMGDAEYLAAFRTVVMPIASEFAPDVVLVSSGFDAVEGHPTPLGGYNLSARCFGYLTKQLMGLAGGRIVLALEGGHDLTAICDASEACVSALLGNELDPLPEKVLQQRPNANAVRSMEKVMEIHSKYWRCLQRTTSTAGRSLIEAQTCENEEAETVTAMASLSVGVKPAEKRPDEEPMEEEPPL

The IC50 is the concentration at which inhibition is half-maximal. For the compound `O=C(NO)c1ccc(Cn2ccc3cc(C(=O)NCC45C[C@H]6C[C@@H](C4)C[C@@H](C5)C6)ccc32)cc1`, the IC50 is 980 nM in [1]; more than 10000 nM in assay [2]; 1900 nM in [3]; 880 nM in [4]; 480 nM in [5]; more than 10000 nM in [6]. Besides, the figures for the IC50 in assay [7], in assay [8] and in assay [9] were 1950 nM, 1090 nM and 5250 nM, respectively.

As for `O=C(NCC12C[C@H]3C[C@@H](C1)C[C@@H](C2)C3)c1ccc2c(ccn2Cc2ccc(C(=O)NO)c(Br)c2)c1`, the IC50 in [1] is 2230 nM; in assay [2], 8970 nM; in [3] it was more than 10000 nM; in assay [4], 7320 nM; in assay [9] it was 9310 nM.

As for `COc1cc(CN(C)CCC23CC4CC(CC(C4)C2)C3)ccc1C(=O)NO`, the IC50 in [5] is 4210 nM; in assay [10], more than 10000 nM.

`O=C(NCC12C[C@H]3C[C@@H](C1)C[C@@H](C2)C3)c1ccc2c(ccn2Cc2ccc(C(=O)NO)c(O)c2)c1`: the IC50 in [1] is 8120 nM; in assay [2], more than 10000 nM; in [3], more than 10000 nM; in [4] it was more than 10000 nM; in assay [6], 7250 nM.

For `COc1cc(C(=O)NCC23CC4CC(CC(C4)C2)C3)ccc1C(=O)NO`, the IC50 in assay [5] worked out at 8890 nM.

Consider `Cc1cc(Cn2ccc3cc(C(=O)NCC45C[C@H]6C[C@@H](C4)C[C@@H](C5)C6)ccc32)ccc1C(=O)NO`, for which the IC50 in [1] is more than 10000 nM; in assay [2] it was more than 10000 nM; in assay [3] it was more than 10000 nM; in [4], more than 10000 nM; in assay [5] it was 350 nM; in assay [7], 2060 nM. For the same compound, the IC50 in assay [8] was more than 10000 nM.

With `COc1cc(C(=O)NO)ccc1Cn1ccc2cc(C(=O)NCC34C[C@H]5C[C@@H](C3)C[C@@H](C4)C5)ccc21`, the IC50 in [1] is 1330 nM; in assay [2], more than 10000 nM; in [3], more than 10000 nM; in assay [4], more than 10000 nM; in assay [5], 93 nM; in assay [10], 640 nM. Moreover, the IC50 was found to be 1880 nM in [6], 160 nM in [7], 3040 nM in assay [8] and 2840 nM in assay [9].

Take `CCCNNC(=O)c1ccc(Cn2ccc3cc(C(=O)NCC45C[C@H]6C[C@@H](C4)C[C@@H](C5)C6)ccc32)cc1`: the IC50 in assay [5] was 2610 nM.

Take `O=C(NCC12C[C@H]3C[C@@H](C1)C[C@@H](C2)C3)c1ccc2c(ccn2Cc2ccc(C(=O)NO)c(F)c2)c1`: the IC50 in assay [1] turned out to be 180 nM; in assay [2] it was 600 nM; in assay [3], 3400 nM; in assay [5], 79 nM.

With `CCOc1cc(Cn2ccc3cc(C(=O)NCC45C[C@H]6C[C@@H](C4)C[C@@H](C5)C6)ccc32)ccc1C(=O)NO`, the IC50 in [2] is more than 10000 nM; in assay [3], more than 10000 nM; in [11], 4030 nM; in [4], more than 10000 nM; in assay [5], 250 nM; in assay [7], more than 10000 nM. Moreover, the half-inhibitory concentration (IC50) in [8] and in assay [9] was more than 10000 nM throughout.

Turning to `COc1cc(CN(C)CC23CC4CC(CC(C4)C2)C3)ccc1C(=O)NO`, the IC50 in assay [5] and in assay [10] was more than 10000 nM throughout.

Regarding `O=C(NO)c1ccc(Cn2ccc3cc(C(=O)NCC45C[C@H]6C[C@@H](C4)C[C@@H](C5)C6)ccc32)c(F)c1`, the IC50 was 690 nM in assay [1]; 230 nM in assay [2]; 1020 nM in assay [3]; 190 nM in [4]; 8 nM in assay [10]; more than 10000 nM in assay [6]. In addition, the IC50 is 1120 nM in assay [8] and 2090 nM in [9].
